Data on 29 molecules can be found in patent publication US7166622B2, “Substituted phenylsulfonamide inhibitors of beta amyloid production” (Wyeth, priority 2002, dated 2007).

The subject of one data set is beta amyloid production. The data set is described as follows: Repressor Release Assay (RRA). Conditions: for APPI % of Example #98: relative to Example 98. The class given is cell-based. The essentials:
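CHO-K1 cells transiently co-transfected with pRSVO-luc and an APP-lacI construct, replated, then treated in duplicate for 36-48 h at 37 °C, 5% CO2. Compounds diluted in 25 mM Hepes, with Hepes/1% DMSO as diluent control. Luciferase read-out in relative light units; toxicity scored 1 non-toxic, 0 toxic.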

The next data set relates to CHO-K1 cells. The data set is described as follows: Toxicity in RRA (loss of luciferase signal). Conditions: toxicity = loss of signal (<0.75 fold increase).
Where [1] appears, read: Conc 10 μg/ml, luciferase activity over diluent control, read-out: APPI Fold Increase.
The mark [2] stands for this setting: Conc 20 μg/ml, luciferase activity over diluent control, read-out: APPI Fold Increase.
Setting [3] is: Conc 20 μg/ml, luciferase activity (RLU) over diluent control, read-out: APPI Fold Increase.
Where [4] appears, read: Conc 20 μg/ml, 1=non-toxic, 0=toxic.
The mark [5] stands for this setting: Conc 20 μg/ml, luciferase activity over diluent control.
[6] abbreviates: Conc 10 μg/ml, luciferase activity over diluent control.

Read-outs that look alike come from different tables or passages of the source.

Experimental for CHO-K1 cells: The beta amyloid inhibitory activity of the compounds of the present invention was determined using the Repressor Release Assay (RRA).
“Fold Increase” refers to the amount of luciferase activity (measured in relative light units) over diluent control. “SEM” refers to the standard error of the mean for fold increase.

Turning to `C=CC(O)[C@@H](NS(=O)(=O)c1ccc(Br)cc1)[C@@H](C)CC` (stereo partly drawn) [Example 151, 4-bromo-N-{(1S)-2-hydroxy-1-[(1S)-1-methylpropyl]-3-butenyl}benzenesulfonamide], the fold induction at 10 µg/mL in the data set on beta amyloid production (setting [1]) was determined as 2.9. Moreover, the “(%)APPI Toxicity” value in the data set on CHO-K1 cells (Conc 10 μg/ml) was 1 (1=non-toxic).
Turning to `CC(C)(C)[C@@H](CO)NS(=O)(=O)c1ccc(Cl)c(Cl)c1` [Example 30, 3,4-dichloro-N-[(1S)-1-(hydroxymethyl)-2,2-dimethylpropyl]benzenesulfonamide], in the data set with beta amyloid production (setting [2]), the fold induction at 20 µg/mL is 2.1. The “(%)APPI Toxicity” value with CHO-K1 cells (Conc 20 μg/ml) is listed as 1 (1=non-toxic).
Take `C[C@@H](c1ccccc1)[C@@H](CO)NS(=O)(=O)c1ccc(Br)cc1` [Example 82, 4-bromo-N-[(1S,2S)-1-(hydroxymethyl)-2-phenylpropyl]benzenesulfonamide]: in the data set on beta amyloid production (setting [3]), the fold induction at 20 µg/mL is 2.6. In the data set on CHO-K1 cells (setting [4]), the “(%)APPI Toxicity” value was 1 (1=non-toxic).
As to `CSCC[C@H](CO)NS(=O)(=O)c1cccc(Cl)c1` [Example 107, 3-chloro-N-[(1R)-1-(hydroxymethyl)-3-(methylthio)propyl]benzenesulfonamide], the fold induction at 1 µg/mL with beta amyloid production (Conc 1 μg/ml, luciferase activity over diluent control, read-out: APPI Fold Increase) was determined as 2.35. Also, in the data set on CHO-K1 cells (Conc 1 μg/ml), the “(%)APPI Toxicity” value is given as 1 (1=non-toxic).
Regarding `CC[C@H](C)[C@H](NS(=O)(=O)c1ccc(Cl)cc1)C(O)c1ccc(N(C)C)cc1` (stereo partly drawn) [Example 183, 4-chloro-N-{(1S,2S)-1-[[4-(dimethylamino)phenyl](hydroxy)methyl]-2-methylbutyl}benzenesulfonamide], the fold induction at 10 µg/mL with beta amyloid production (setting [1]) was found to be 4.49. Moreover, in the data set with CHO-K1 cells (Conc 10 μg/ml), the “(%)APPI Toxicity” value is 1 (1=non-toxic).
Turning to `CC(C)C[C@@H](c1ccccc1)[C@@H](CO)NS(=O)(=O)c1ccc(Cl)cc1` [Example 64, 4-chloro-N-[(1S,2S)-1-(hydroxymethyl)-4-methyl-2-phenylpentyl]benzenesulfonamide], the fold induction at 20 µg/mL in the data set on beta amyloid production (setting [3]) was 1.7. In addition, the “(%)APPI Toxicity” value with CHO-K1 cells (setting [4]) is on record as 1 (1=non-toxic).
Consider `O=S(=O)(NC1(CO)CC2CCC1C2)c1ccc(Br)cc1` (centres unmarked) [Example 121, 4-bromo-N-[2-(hydroxymethyl)bicyclo[2.2.1.]hept-2-yl]benzenesulfonamide], for which, in the data set with beta amyloid production (setting [5]), the “APPI Fold Increase” value came out at 1.7 fold. Also, the “APPI % of Example #98” value with beta amyloid production (Conc 20 μg/ml) worked out at 45.1%. For the same molecule, the “(%)APPI Toxicity” value in the data set with CHO-K1 cells (Conc 20 μg/ml) is given as 1 (1=non-toxic).
On to `CC[C@H](C)[C@H](NS(=O)(=O)c1ccc(Br)cc1)C(O)(CC)CC` [Example 217, 4-bromo-N-{(1S)-2-ethyl-2-hydroxy-1-[(1S)-1-methylpropyl]butyl}benzenesulfonamide], for which the fold induction at 10 µg/mL with beta amyloid production (setting [1]) turned out to be 1.68. Besides, in the data set with CHO-K1 cells (Conc 10 μg/ml), the “(%)APPI Toxicity” value is reported as 1 (1=non-toxic).
Turning to `CCCCC(CO)NS(=O)(=O)c1ccccc1F` (centres unmarked) [Example 110, 2-fluoro-N-[1-(hydroxymethyl)pentyl] benzenesulfonamide], the “APPI Fold Increase” value with beta amyloid production (setting [5]) was determined as 1.7 fold. In addition, in the data set with beta amyloid production (Conc 20 μg/ml), the “APPI % of Example #98” value is recorded as 46.5%. Besides, the “(%)APPI Toxicity” value in the data set on CHO-K1 cells (Conc 20 μg/ml) was 1 (1=non-toxic).
As to `CC[C@H](C)[C@@H](CO)N(CCSC)S(=O)(=O)c1ccc(Cl)cc1` [Example 47, 4-chloro-N-[(1S,2S)-1-(hydroxymethyl)-2-methylbutyl]-N-[2-(methylthio)ethyl]benzenesulfonamide], the fold induction at 20 µg/mL in the data set on beta amyloid production (setting [2]) is 2.4. Moreover, the “(%)APPI Toxicity” value with CHO-K1 cells (Conc 20 μg/ml) was 1 (1=non-toxic).
As for `CC[C@H](C)[C@H](NS(=O)(=O)c1ccc(Cl)cc1)C(O)(CC(C)C)CC(C)C` [Example 226, 4-chloro-N-{(1S)-2-hydroxy-2-isobutyl-4-methyl-1-[(1S)-1-methylpropyl]pentyl}benzenesulfonamide], the fold induction at 10 µg/mL in the data set with beta amyloid production (setting [1]) was 4.6. Besides, in the data set with CHO-K1 cells (Conc 10 μg/ml), the “(%)APPI Toxicity” value was 1 (1=non-toxic).
With `C[C@@H](c1ccccc1)[C@@H](CO)NS(=O)(=O)c1ccc(Cl)cc1` [Example 63, 4-chloro-N-[(1S,2S)-1-(hydroxymethyl)-2-phenylpropyl]benzenesulfonamide], the fold induction at 20 µg/mL in the data set with beta amyloid production (setting [3]) stood at 2. The “(%)APPI Toxicity” value in the data set with CHO-K1 cells (setting [4]) is 1 (1=non-toxic).
Regarding `CC[C@H](C)[C@@H](CO)NS(=O)(=O)c1ccccc1Br` [Example 1, 2-Bromo-N-[(1S,2S)-1-(hydroxymethyl)-2-methylbutyl]benzenesulfonamide], the fold induction at 20 µg/mL with beta amyloid production (setting [2]) was 1.6. The “(%)APPI Toxicity” value with CHO-K1 cells (Conc 20 μg/ml) is on record as 1 (1=non-toxic).
As for “4-bromo-N-((1S,2 S)-1-{hydroxy-[4-(methylsulfanyl)phenyl]methyl}-2-methylbutyl) benzenesulfonamide [Example 163]”, the “APPI Fold Increase” value with beta amyloid production (setting [6]) was 1.64 fold. The “APPI % of Example #98” value in the data set with beta amyloid production (Conc 10 μg/ml) is recorded as 69.41%. In addition, the “(%)APPI Toxicity” value with CHO-K1 cells (Conc 10 μg/ml) is on record as 1 (1=non-toxic).
Taken in the same sequence, the figures for `CC[C@H](C)[C@H](NS(=O)(=O)c1ccc(Cl)cc1)C(O)CCC1OCCCO1` (stereo partly drawn) [Example 179, 4-chloro-N-{(1S)-4-(1,3-dioxan-2-yl)-2-hydroxy-1-[(1S)-1-methylpropyl]butyl} benzenesulfonamide] were 1.63 fold, 79.4% and 1 (1=non-toxic).
Consider `CC(C)[C@@H](CO)NS(=O)(=O)c1ccc(Cl)c(Cl)c1` [Example 27, 3,4-dichloro-N-[(1S)-1-(hydroxymethyl)-2-methylpropyl]benzenesulfonamide], for which the fold induction at 20 µg/mL in the data set on beta amyloid production (setting [2]) stood at 2.2. In addition, the “(%)APPI Toxicity” value in the data set on CHO-K1 cells (Conc 20 μg/ml) is listed as 1 (1=non-toxic).
Regarding `CC[C@H](C)[C@@H](CO)N(Cc1ccc(-c2ccccc2)cc1)S(=O)(=O)c1ccc(Cl)cc1` [Example 41, N-([1,1′-biphenyl]-4-ylmethyl)-4-chloro-N-[(1S,2S)-1-(hydroxymethyl)-2-methylbutyl]benzenesulfonamide], the fold induction at 20 µg/mL in the data set on beta amyloid production (setting [2]) was 4.9. The “(%)APPI Toxicity” value in the data set with CHO-K1 cells (Conc 20 μg/ml) is 1 (1=non-toxic).
Take `O=S(=O)(NC1(CO)CCCCC1)c1ccc(Cl)cc1` [Example 123, 4-chloro-N-[1-(hydroxymethyl)cyclohexyl]benzenesulfonamide]: the fold induction at 20 µg/mL with beta amyloid production (setting [2]) came to 4.4. In addition, in the data set on CHO-K1 cells (Conc 20 μg/ml), the “(%)APPI Toxicity” value was 1 (1=non-toxic).
Turning to `CCCC(CO)NS(=O)(=O)c1cccc(Cl)c1` (centres unmarked) [Example 105, 3-chloro-N-[1-(hydroxymethyl)butyl]benzenesulfonamide], the fold induction at 10 µg/mL with beta amyloid production (setting [1]) was found to be 1.54. The “(%)APPI Toxicity” value in the data set with CHO-K1 cells (Conc 10 μg/ml) is reported as 1 (1=non-toxic).
Regarding `CC(C)[C@H](C)[C@@H](CO)NS(=O)(=O)c1ccc(Cl)cc1` [Example 69, 4-chloro-N-[(1S,2S)-1-(hydroxymethyl)-2,3-dimethylbutyl]benzenesulfonamide], the fold induction at 20 µg/mL in the data set with beta amyloid production (setting [3]) is 3.1. The “(%)APPI Toxicity” value in the data set on CHO-K1 cells (setting [4]) was 1 (1=non-toxic).
On to `CCCCCC(O)[C@@H](NS(=O)(=O)c1cccc(Cl)c1)[C@@H](C)CC` (stereo partly drawn) [Example 188, 3-chloro-N-{(1S)-2-hydroxy-1-[(1S)-1-methylpropyl]heptyl}benzenesulfonamide], for which the fold induction at 10 µg/mL in the data set with beta amyloid production (setting [1]) worked out at 3.54. Besides, the “(%)APPI Toxicity” value in the data set with CHO-K1 cells (Conc 10 μg/ml) is given as 1 (1=non-toxic).
Taken in the same sequence, the figures for `CCC(O)[C@@H](NS(=O)(=O)c1cccc(Cl)c1)[C@@H](C)CC` (stereo partly drawn) [Example 195, 3-chloro-N-{(1S)-2-hydroxy-1-[(1S)-1-methylpropyl]butyl}benzenesulfonamide] were 2.16 and 1 (1=non-toxic).
As for `CC[C@H](CC(C)C)[C@@H](CO)NS(=O)(=O)c1ccc(Br)cc1` [Example 73, 4-bromo-N-[(1S,2R)-2-ethyl-1-(hydroxymethyl)-4-methylpentyl]benzenesulfonamide], the fold induction at 20 µg/mL with beta amyloid production (setting [3]) worked out at 5.4. For the same molecule, the “(%)APPI Toxicity” value in the data set on CHO-K1 cells (setting [4]) is listed as 1 (1=non-toxic).
Regarding `CC[C@H](C)[C@@H](CO)NS(=O)(=O)c1ccc(F)cc1` [Example 10, 4-fluoro-N-[(1S,2S)-1-(hydroxymethyl)-2-methylbutyl]benzenesulfonamide], in the data set on beta amyloid production (setting [2]), the fold induction at 20 µg/mL turned out to be 3.3. Also, in the data set with CHO-K1 cells (Conc 20 μg/ml), the “(%)APPI Toxicity” value is 1 (1=non-toxic).
Consider `CCC[C@H](c1ccccc1)[C@@H](CO)NS(=O)(=O)c1ccc(Cl)cc1` [Example 59, 4-chloro-N-[(1S,2R)-1-(hydroxymethyl)-2-phenylpentyl]benzenesulfonamide], for which, in the data set on beta amyloid production (setting [3]), the fold induction at 20 µg/mL stood at 3.2. Also, the “(%)APPI Toxicity” value with CHO-K1 cells (setting [4]) is recorded as 1 (1=non-toxic).
Take `C=CC(O)[C@@H](NS(=O)(=O)c1ccccc1F)[C@@H](C)CC` (stereo partly drawn) [Example 206, 2-fluoro-N-{(1S)-2-hydroxy-1-[(1S)1-methylpropyl]-3-butenyl}benzenesulfonamide]: in the data set on beta amyloid production (setting [1]), the fold induction at 10 µg/mL came out at 1.9. Besides, the “(%)APPI Toxicity” value in the data set with CHO-K1 cells (Conc 10 μg/ml) is on record as 1 (1=non-toxic).
With `C=CCN([C@H](CO)[C@@H](C)CC)S(=O)(=O)c1ccc(Cl)cc1` [Example 40, N-Allyl-4-chloro-N-[(1S,2 S)-1-(hydroxymethyl)-2-methylbutyl]benzenesulfonamide], the fold induction at 20 µg/mL with beta amyloid production (setting [2]) amounted to 3.4. Besides, the “(%)APPI Toxicity” value in the data set with CHO-K1 cells (Conc 20 μg/ml) is on record as 1 (1=non-toxic).
Turning to `CC[C@H](C)[C@H](NS(=O)(=O)c1cccc(Cl)c1)C(O)(CC(C)C)CC(C)C` [Example 252, 3-chloro-N-{(1S)-2-hydroxy-2-isobutyl-4-methyl-1-[(1S)-1-methylpropyl]pentyl}benzenesulfonamide], the fold induction at 10 µg/mL in the data set with beta amyloid production (setting [1]) was 1.8. Besides, the “(%)APPI Toxicity” value with CHO-K1 cells (Conc 10 μg/ml) was 1 (1=non-toxic).
Taken in the same sequence, the figures for `CCCCC(O)(CCCC)[C@@H](NS(=O)(=O)c1ccc(Br)cc1)[C@@H](C)CC` [Example 213, 4-bromo-N-{(1S)-2-butyl-2-hydroxy-1-[(1S)-1-methylpropyl]hexyl}benzenesulfonamide] were 3.03 and 1 (1=non-toxic).
